Laboratory results as given in patent US20230355599A1, “BIOMARKERS FOR CBL, AND COMPOSITIONS AND METHODS FOR THEIR USE” (NURIX THERAPEUTICS, INC., priority 2022, published 2023).

Experiments:
phosphorylated PLCγ2 = assay: Phosphorylated PLCγ2 in human CD8+ T cells from whole blood in vitro (flow cytometry); type: cell-based; conditions: T-cell, whole blood from six human donors, 2 hrs 37° C., anti-CD3/anti-CD28 + crosslinker 60 minutes, read-out: Average mean EC50±standard deviation, phosphorylated PLCγ2
Protocol: To assess these candidate clinical proximal biomarkers of Cbl-b inhibition on T cells, pharmacodynamic analysis was performed. Whole blood was obtained from human donors and incubated with increasing concentrations of Compound 23. The response to Cbl-b inhibition on phosphorylated HS1, PLCγ2, and ZAP70 was measured in CD8^+ T cells using flow cytometry. This technique is highly quantitative and can measure multiple phosphorylation markers in different cell populations within the same sample.
For pharmacodynamic analysis, whole blood was obtained from six human donors (BioIVT) and used for flow cytometry assays to evaluate phosphorylated biomarkers HS1, PLCγ2, and ZAP70 in CD8^+ T cells.
Whole blood was collected in a collection tube coated with sodium heparin. […]
Stained cells were run on an Attune NxT Acoustic Focusing Flow Cytometer (Thermo Fisher, cat. No. A29004), and data was analyzed using FlowJo (v10.6.1) and GraphPad Prism (v8.00) software. Single lymphocytes were gated for CD8^+ cells (CD45^+/CD8^+) cells, and population frequencies were calculated for each population. The data is quantified by the percent positive. […] As protein becomes phosphorylated the fluorescence increases resulting in a larger fraction of the cells entering that gate. Each population was evaluated for % positive pY759-PLCγ2, pY397-HS1 levels, pY319/Syk (Y352)-ZAP70 levels.

pY525/pY526/pY348-SYK = assay: Phosphoprotein screen in human whole blood with CBL inhibitor at 10 uM: SYK; type: cell-based; conditions: 1 hr 37° C., human whole blood 8 donors, anti-CD3/CD28 + crosslinker 60 minutes
Protocol: To identify proximal biomarkers of CBL-B inhibition in immune cells, a panel of phosphorylated proteins were screened in human whole blood incubated with CBL-B inhibitor and concomitant anti-CD3 and anti-CD28 antibodies. The effect of CBL-B inhibition was assessed across multiple cellular signaling networks.
Human heparinized whole blood from 8 donors was received after an overnight shipment at 4° C. The blood was plated, treated with CBL inhibitor at 10 uM and incubated at 37° C. for 60 minutes. After incubation, the cells were stimulated with anti-CD3/CD28 followed by a cross-linking antibody (30 μg of goat anti-mouse IgG (H+L) antibody (Invitrogen)). After 60 minutes, the cells were fixed, and stained using surface markers for T cells (CD3^+CD4^+& CD3^+CD8^+) and analyzed by flow cytometry for target phosphorylation of the following markers: pY180/pY511-ITK, pY397-HS1, pY759-PLCg2, pY783-PLCg1, pY525/pY526/pY348-SYK & pY319-Zap70.
Fold change of each biomarker was calculated with the following example equation: […]
Whole blood from eight human donors was collected in sodium heparin anti-coagulant treated with 10 μM of Compound 23 for 1 hr at 37° C. […] Fold change of % phosphorylation normalized to DMSO was quantitated in T cells (CD8^+) using flow cytometry is provided in FIGS. 6A-6B.

`C[C@H]1CCCN(Cc2cc3c(c(C(F)(F)F)c2)CN(c2cccc([C@]4(c5nncn5C)C[C@@H](C)C4)c2)C3=O)C1` [Compound 23] was tested, and the EC50 (phosphorylated PLCγ2) was 74 ± 4.95 nM and the “increased phosphorylation of SYK compared to DMSO control” value (pY525/pY526/pY348-SYK) was 2-3 fold.
